This is an account of results in patent publication USRE47512E1, “Imidazole and imidazolium resins and methods for preparing curable imidazolium antimicrobial resins” (DENTSPLY SIRONA INC., priority 2011, dated 2019).

The nature of the series: Solubility of resins @ 37° C. It is filed as physicochemical.

On to “TCDC-based Bisimidazole-dimethacrylate Resin [Example 2]”, for which, for the setting “Table I”, the “Solubility @ 37° C. in water” value is “partially” and the “Solubility @ 37° C. in water/ethanol (50:50, w/w %)” value was “soluble”.
The matching figures for “Isosorbide-based Bisimidazole-dimethacrylate Resin [Example 1]”: “partially” and “soluble”.
Turning to “Isosorbide-based Bisimidazoliumbromide-dimethacrylate Resin [Example 5]”, where the note is “Table II, EtOH”, the “Solubility @ 37° C. in EtOH” value is reported as “soluble”. Besides, under “Table II”, the “Solubility @ 37° C. in water/ethanol (50:50, w/w %)” value is “soluble”.
Consider “HEMA-based Monoimidazole-dimethacrylate Resin [Example 3a]”, for which, under “Table I”, the “Solubility @ 37° C. in water” value is reported as “partially” and the “Solubility @ 37° C. in water/ethanol (50:50, w/w %)” value was “soluble”.
